Assay results reported in patent US9976183B2, “Biomarkers for cancers responsive to modulators of HEC1 activity” (TAIVEX THERAPEUTICS CORPORATION, priority 2011, dated 2018).

Legend:
Format in all cases: cell-based
HeLa = assay: Synergy of Hec1 inhibitor with cytotoxic drug (combination index, MTS)
Procedure: (§1) Synergy: GI50s for selected drugs were determined and used to calculate a concentration ratio for use synergy assays with Hec1 inhibitors. Cells were treated with drugs 24 hours after being seeded in appropriate seeding numbers into 96 well plates containing low glucose DME with 10% FBS. […] Cell viability was determined by MTS assay using a CellTiter 96® Aqueous non-radioactive cell proliferation assay system (Promega, Madison, Wis. 53711 USA) according to the manufacturer's instructions. Optical density was determined using a Bio-Tek 340 spectrophotometer (Bio-Tek, Winooski, Vt. 05404) and were then processed using Excel (Microsoft, Redmond, Wash. 98052-7329) and GraphPad Prism 5 linear regression software (GraphPad Software, La Jolla, Calif. 92037 USA) to determine concentration-response curves for calculating relative GI50s. Synergy was determined by calculating a combination index value using the formula CI (combination index)=(CA,X/ICx,A)+(CB,X/ICx,B), where CA,X and CB,X are the concentrations of drug A and drug B used in combination to achieve x % drug effect. ICx,A and ICx,B are the concentrations for single agents to achieve the same effect.
(§2) Hec1 inhibitor-responsive cancer cells used for screening were treated with a mixture of Hec1 inhibitor and select anti-cancer drug at appropriate concentration ratios and evaluated for cell viability.

[1] = test system: Nek2 in resistant cell line (A549); assay: Nek2 expression by immunoblotting; details: A549, 48 hours, immunoblot (FIG. 6B)
Procedure: (§3) Immunoblots: Cell lysates were by incubation of cells in radioimmunoprecipitation assay (RIPA) buffer (50 mM Tris-HCl, pH7.4, 150 mM NaCl, 1% NP40, 0.25% DOC, 0.1% SDS, 1 mM NaVO4, 1 mM EDTA, 1 ug/ml leupeptin, 1 μg/ml pepstatin) or 2.5× sample buffer (50 mM Tris-HCl, pH6.8, 1% SDS, 2.5% BME, 7.5% Glycerol, Bromophenol blue). Tissue samples were immersed in RIPA buffer, disrupted with a homogenizer, and centrifuged to clarify. Samples were then subjected to SDS-PAGE, blotted onto immunoblotting membranes, and incubated with primary antibodies in 3% BSA-TBST. Horseradish peroxidase—conjugated secondary antibodies were used for protein detection by enhanced chemiluminescence (Millipore, Billerica, Mass. 01821 USA). The following antibodies were used for Western blotting: anti-Rb monoclonal antibody 1F8 (Abcam, Cambridge, Mass. 02139-1517 USA); anti-p53 monoclonal antibody (Santa Cruz Biotechnology, Santa Cruz, Calif. 95060 USA); anti-β-actin monoclonal antibody AC-15 (Sigma Aldrich, St. Louis, Mo., USA).
(§4) To investigate this possibility, drug-responsive (HeLa, MDA-MB-468, HCT116) and resistant cells (A549) were synchronized by starvation and expression of Hec1 and Nek2 characterized at 1(G1), 27(G27), 32(G32), and 48(G48) hours. Differential expression patterns between Hec1 and Nek2 are apparent, indicating differences in regulation of Hec1/Nek2 pathways (FIG. 6A). […]

[2] = test system: Nek2 in sensitive cell lines (HeLa, HCT116); assay: Nek2 expression by immunoblotting; details: 48 hours, immunoblot (FIG. 6B)
Procedure: as §3, §4

[3] = test system: phosphorylated p73 in HeLa and A549 cells; assay: Immunoblots for phosphorylated p73
Procedure: as §3
P73 is a member of the p53-family that mediates apoptosis and replaces p53 function in p53-deficient cells. […] To investigate this, drug-responsive (HeLa) and drug-resistant cells (A549) carrying mutant p53 proteins were treated with Hec1 inhibitor 110095 for varying lengths of time.

HepG2 = assay: Synergy of Hec1 inhibitor with cytotoxic drug (combination index, MTS); set-up: key: CI = (CA,X/ICx,A)+(CB,X/ICx,B) at x% drug effect
Procedure: as §1, §2

PCL/PRF/5 = assay: as above; set-up: key: CI = (CA,X/ICx,A)+(CB,X/ICx,B) at x% drug effect
Procedure: as §1, §2

[4] = in combination with doxorubicin

Structure (SMILES): COCCOc1cnc(Sc2cc(C)c(-c3csc(NC(=O)c4ccncc4)n3)c(C)c2)cn1 [compound 110095, N-(4-(4-(5-(2-methoxyethoxy)pyrazin-2-ylthio)-2,6-dimethylphenyl)thiazol-2-yl)isonicotinamide]
- Combination Index (HeLa; in combination with Taxol): 1.22
- Combination Index (HeLa; [4]): 1.55
- Combination Index (HeLa; in combination with topotecan): 1.90
- Nek2 expression [1]: this effect is not seen
- Nek2 expression [2]: degradation of Nek2
- time of peak p73 phosphorylation after drug treatment ([3]; immunoblot (FIG. 5A)): 48 h
- phosphorylation of p73 ([3]; immunoblot, treated for varying lengths of time, 200 nM (FIG. 5A)): induced time-dependent phosphorylation of p73
- Combination Index (HepG2; in combination with KX01): 2.32
- Combination Index (HepG2; [4]): 3.00
- Combination Index (HepG2; in combination with sorafenib): 1.88
- Combination Index (HepG2; in combination with topotecan): 3.03
- Combination Index (PCL/PRF/5; in combination with KX01): 1.08
- Combination Index (PCL/PRF/5; in combination with Taxol): 0.81
- Combination Index (PCL/PRF/5; [4]): 2.31
- Combination Index (PCL/PRF/5; in combination with sorafenib): 1.41
- Combination Index (PCL/PRF/5; in combination with topotecan): 2.83
